Source: patent US12049439B2 (OrsoBio, Inc., priority 2018, dated 2024)

test system: PC-3 cells; assay: PC-3 Oxygen Rate Consumption (OCR) Assay; format: cell-based; conditions: Homo sapiens, 0.05 h, medium with 2% FBS, OCR at 3-min post-injection normalized to % increase over DMSO-treated cells, concentration for half-maximal OCR increase, read-out: EC50-PC3-OCR-FBS-3min
Summary of the method: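 PC-3 cells seeded a day before, equilibrated 1 h in XF medium with 10 mM glucose, 1 mM pyruvate, 2% FBS, non-CO2 at 37 °C. Compound injected after basal OCR reads; OCR at 3 min post-injection normalized as % increase over DMSO, EC50 = half-maximal increase; six replicates.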

SMILES | EC50
CCCCS(=O)(=O)Nc1ccc(C(F)(F)F)cc1C(=O)NC12CCC(C#N)(CC1)CC2 [Example 127, 2-(butylsulfonamido)-N-(4-cyanobicyclo[2.2.2]octan-1-yl)-5-(trifluoromethyl)benzamide] | 2.41 µM
[2H]C([2H])([2H])C(c1ccc(S(=O)(=O)Nc2ccc(S(C)(=O)=O)cc2C(=O)NC23CC(C(F)(F)F)(C2)C3)cc1)(C([2H])([2H])[2H])C([2H])([2H])[2H] [Example 151, 2-((4-(2-(methyl-d3)propan-2-yl-1,1,1,3,3,3-d6)phenyl)sulfonamido)-5-(methylsulfonyl)-N-(3-(trifluoromethyl)bicyclo[1.1.1]pentan-1-yl)benzamide] | 9.39 µM
CC(C)(C)S(=O)(=O)Nc1cc(C#N)ccc1C(=O)NC12CC(c3ccccc3)(C1)C2 [Example 98, 4-cyano-2-((1,1-dimethylethyl)sulfonamido)-N-(3-phenylbicyclo[1.1.1]pentan-1-yl)benzamide] | 1.98 µM
CS(=O)(=O)Nc1ccc(C(F)(F)F)cc1C(=O)NC12CC(C(F)(F)F)(C1)C2 [Example 166, 2-(methylsulfonamido)-5-(trifluoromethyl)-N-(3-(trifluoromethyl)bicyclo[1.1.1]pentan-1-yl)benzamide] | 1.07 µM
CS(=O)(=O)Nc1cc(SC(F)(F)F)ccc1C(=O)NC12CCC(C#N)(CC1)CC2 [Example 202, N-(4-cyanobicyclo[2.2.2]octan-1-yl)-2-(methylsulfonamido)-4-((trifluoromethyl)thio)benzamide] | 9.32 µM
COc1ccc(C(=O)NC23CC(c4ccccc4)(C2)C3)c(NS(=O)(=O)c2ccc(S(C)(=O)=O)cc2)c1 [Example 89, 4-methoxy-2-((4-(methylsulfonyl)phenyl)sulfonamido)-N-(3-phenylbicyclo[1.1.1]pentan-1-yl)benzamide] | 26.7 µM
CC(C)(C)c1ccc(C(=O)NC23CC(c4ccccc4)(C2)C3)c(NS(=O)(=O)c2ccc(S(C)(=O)=O)cc2)c1 [Example 15, 4-(tert-butyl)-2-((4-(methylsulfonyl)phenyl)sulfonamido)-N-(3-phenylbicyclo[1.1.1]pentan-1-yl)benzamide] | 10.9 µM
CN(C)S(=O)(=O)c1ccc(S(=O)(=O)Nc2cc(C(F)(F)F)ccc2C(=O)NC23CC(C#N)(C2)C3)cc1 [Example 42, N-(3-cyanobicyclo[1.1.1]pentan-1-yl)-2-((4-(N,N-dimethylsulfamoyl)phenyl)sulfonamido)-4-(trifluoromethyl)benzamide] | 27.5 µM
N#CC12CCC(NC(=O)c3cc(S(F)(F)(F)(F)F)ccc3NS(=O)(=O)N3CCOCC3)(CC1)CC2 [Example 206, N-(4-cyanobicyclo[2.2.2]octan-1-yl)-2-(morpholine-4-sulfonamido)-5-(pentafluoro-λ^6-sulfanyl)benzamide] | 2.71 µM
CC(C)(C)S(=O)(=O)Nc1ccc(C#N)cc1C(=O)NC12CCC(C#N)(CC1)CC2 [Example 123, 5-cyano-N-(4-cyanobicyclo[2.2.2]octan-1-yl)-2-((1,1-dimethylethyl)sulfonamido)benzamide] | 4.84 µM
CC(C)(C)S(=O)(=O)c1ccc(S(=O)(=O)Nc2cc(F)ccc2C(=O)NC23CC(C(F)(F)F)(C2)C3)cc1 [Example 152, 2-((4-(tert-butylsulfonyl)phenyl)sulfonamido)-4-fluoro-N-(3-(trifluoromethyl)bicyclo[1.1.1]pentan-1-yl)benzamide] | 1.13 µM
CS(=O)(=O)Nc1ccc(S(=O)(=O)Nc2cc(C(F)(F)F)ccc2C(=O)NC23CC(C(F)(F)F)(C2)C3)cc1 [Example 107, 2-((4-(methylsulfonamido)phenyl)sulfonamido)-4-(trifluoromethyl)-N-(3-(trifluoromethyl)bicyclo[1.1.1]pentan-1-yl)benzamide] | 30.6 µM
N#CC12CCC(NC(=O)c3cc(C(F)(F)F)ccc3NS(=O)(=O)N3CC(OC(F)F)C3)(CC1)CC2 [Example 224, N-(4-cyanobicyclo[2.2.2]octan-1-yl)-2-((3-(difluoromethoxy)azetidine)-1-sulfonamido)-5-(trifluoromethyl)benzamide] | 2.42 µM
O=C(NC12CC(C(F)(F)F)(C1)C2)c1ccc(F)cc1NS(=O)(=O)C1CC1 [Example 2, 2-(cyclopropanesulfonamido)-4-fluoro-N-(3-(trifluoromethyl)bicyclo[1.1.1]pentan-1-yl)benzamide] | 3.65 µM
CS(=O)(=O)c1ccc(S(=O)(=O)Nc2cc(C(F)(F)F)ccc2C(=O)NC23CC(C2)C3)cc1 [Example 23, N-(bicyclo[1.1.1]pentan-1-yl)-2-((4-(methylsulfonyl)phenyl)sulfonamido)-4-(trifluoromethyl)benzamide] | 12 µM
CS(=O)(=O)Nc1ccc(C#N)cc1C(=O)NC12CCC(C(F)(F)F)(CC1)CC2 [Example 229, 5-cyano-2-(methylsulfonamido)-N-(4-(trifluoromethyl)bicyclo[2.2.2]octan-1-yl)benzamide] | 4.42 µM

SMILES | EC50
N#Cc1ccc(C(=O)NC23CC(C(F)(F)F)(C2)C3)c(NS(=O)(=O)N2CCC2)c1 [Example 247, 2-(azetidine-1-sulfonamido)-4-cyano-N-(3-(trifluoromethyl)bicyclo[1.1.1]pentan-1-yl)benzamide] | 4.79 µM
COc1ccc(S(=O)(=O)Nc2ccc(C(F)(F)F)cc2C(=O)NC23CCC(C#N)(CC2)CC3)cc1 [Example 121, N-(4-cyanobicyclo[2.2.2]octan-1-yl)-2-((4-methoxyphenyl)sulfonamido)-5-(trifluoromethyl)benzamide] | 2.26 µM
CS(=O)(=O)Nc1ccc(C(F)(F)F)cc1C(=O)NC12CC(Cl)(C1)C2 [Example 80, N-(3-chlorobicyclo[1.1.1]pentan-1-yl)-2-(methylsulfonamido)-5-(trifluoromethyl)benzamide] | 2.54 µM
CCS(=O)(=O)c1ccc(S(=O)(=O)Nc2cc(C(F)(F)F)ccc2C(=O)NC23CC(C(F)(F)F)(C2)C3)cc1 [Example 24, 2-((4-(ethylsulfonyl)phenyl)sulfonamido)-4-(trifluoromethyl)-N-(3-(trifluoromethyl)bicyclo[1.1.1]pentan-1-yl)benzamide] | 3.32 µM
N#CC1(S(=O)(=O)Nc2ccc(F)cc2C(=O)NC23CC(C(F)(F)F)(C2)C3)CC1 [Example 242, 2-((1-cyanocyclopropane)-1-sulfonamido)-5-fluoro-N-(3-(trifluoromethyl)bicyclo[1.1.1]pentan-1-yl)benzamide] | 4.34 µM
O=C(NC12CCC(F)(CC1)CC2)c1cc(C(F)(F)F)ccc1NS(=O)(=O)Cc1ccccc1 [Example 197, N-(4-fluorobicyclo[2.2.2]octan-1-yl)-2-((phenylmethyl)sulfonamido)-5-(trifluoromethyl)benzamide] | 0.893 µM
CC(C)S(=O)(=O)Nc1ccc(C(F)(F)F)cc1C(=O)NC12CC(C#N)(C1)C2 [Example 68, N-(3-cyanobicyclo[1.1.1]pentan-1-yl)-2-((1-methylethyl)sulfonamido)-5-(trifluoromethyl)benzamide] | 5.13 µM
CS(=O)(=O)c1ccc(S(=O)(=O)Nc2cc(F)ccc2C(=O)NC23CC(C(F)(F)F)(C2)C3)cc1 [Example 5, 4-fluoro-2-((4-(methylsulfonyl)phenyl)sulfonamido)-N-(3-(trifluoromethyl)bicyclo[1.1.1]pentan-1-yl)benzamide] | 5.8 µM
CS(=O)(=O)Nc1cccc(F)c1C(=O)NC12CC(C(F)(F)F)(C1)C2 [Example 142, 2-fluoro-6-(methylsulfonamido)-N-(3-(trifluoromethyl)bicyclo[1.1.1]pentan-1-yl)benzamide] | ≥ 100 µM
CS(=O)(=O)Nc1cc(S(F)(F)(F)(F)F)ccc1C(=O)NC12CCC(C#N)(CC1)CC2 [Example 117, N-(4-cyanobicyclo[2.2.2]octan-1-yl)-2-(methylsulfonamido)-4-(pentafluoro-λ^6-sulfanyl)benzamide] | 4.02 µM
O=C(NC12CC(C(F)(F)F)(C1)C2)c1cc(C(F)(F)F)ccc1NS(=O)(=O)N1CCS(=O)(=O)CC1 [Example 193, 2-((1,1-dioxidothiomorpholine)-4-sulfonamido)-5-(trifluoromethyl)-N-(3-(trifluoromethyl)bicyclo[1.1.1]pentan-1-yl)benzamide] | 9.95 µM
CS(=O)(=O)Nc1ccc(C(F)(F)F)cc1C(=O)NC12CCC(F)(CC1)CC2 [Example 82, N-(4-fluorobicyclo[2.2.2]octan-1-yl)-2-(methylsulfonamido)-5-(trifluoromethyl)benzamide] | 6.32 µM
CC(C)(C)S(=O)(=O)Nc1ccc(C#N)cc1C(=O)NC12CC(c3ccccc3)(C1)C2 [Example 96, 5-cyano-2-((1,1-dimethylethyl)sulfonamido)-N-(3-phenylbicyclo[1.1.1]pentan-1-yl)benzamide] | 1.28 µM
CS(=O)(=O)c1ccc(S(=O)(=O)Nc2ccc(C(F)(F)F)cc2C(=O)NC23CCC(C#N)(CC2)CC3)cc1 [Example 118, N-(4-cyanobicyclo[2.2.2]octan-1-yl)-2-((4-(methylsulfonyl)phenyl)sulfonamido)-5-(trifluoromethyl)benzamide] | 49.2 µM
CC(C)(C)S(=O)(=O)Nc1cc(S(F)(F)(F)(F)F)ccc1C(=O)NC12CCC(C#N)(CC1)CC2 [Example 161, N-(4-cyanobicyclo[2.2.2]octan-1-yl)-2-((1,1-dimethylethyl)sulfonamido)-4-(pentafluoro-λ^6-sulfanyl)benzamide] | 1.09 µM
CS(=O)(=O)Nc1ccc(Cl)cc1C(=O)NC12CCC(C(F)(F)F)(CC1)CC2 [Example 208, 5-chloro-2-(methylsulfonamido)-N-(4-(trifluoromethyl)bicyclo[2.2.2]octan-1-yl)benzamide] | 10.6 µM

same assay, conditions: medium with 2% FBS, OCR at 3-min post-injection normalized to % increase over DMSO-treated cells, concentration for half-maximal OCR increase, read-out: EC50-PC3-OCR-FBS-3min

SMILES | EC50
CS(=O)(=O)Nc1c(F)cccc1C(=O)NC12CC(C(F)(F)F)(C1)C2 [Example 145, 3-fluoro-2-(methylsulfonamido)-N-(3-(trifluoromethyl)bicyclo[1.1.1]pentan-1-yl)benzamide] | ≥ 100 µM
